For series [1], the system named is Puccinia recondita (PUCCRT). The series can be described thus: foliar fungicide test on wheat (Example 18). The format is in vivo. As to conditions: 100 ppm foliar spray on wheat; inoculated one day after chemical application (Prot).
Series [2] deals with peach potato aphids (Myzus persicae). The series can be described thus: whole plant or invertebrate. As to conditions: 72 h, read-out: mortality (score) Mp.
Experimental: (§1) This Example illustrates the pesticidal/insecticidal properties of compounds of formula (I). The activities of individual compounds of formula (I) were determined using a variety of pests. The pests were treated with a liquid composition containing 500 parts per million (ppm) by weight of a compound of formula (I). Each composition was made by dissolving the compound in an acetone and ethanol (50:50 by volume) mixture and diluting the solution with water containing 0.05% by volume of a wetting agent, SYNPERONIC NP8, until the liquid composition contained the required concentration of the compound.
(§2) The test procedure adopted with regard to each pest was essentially the same and comprised supporting a number of the pests on a medium, which was usually a substrate, a host plant or a foodstuff on which the pests feed, and treating either or both the medium and the pests with a composition. Pest mortality was assessed usually between two and five days after treatment.
(§3) In each test against peach potato aphids (Myzus persicae), Chinese cabbage leaves were infested with aphids, the infested leaves were sprayed with a test composition and pest mortality was assessed after three days.
For series [3], the system named is two-spotted spider mites (Tetranychus urticae). The conditions noted are these: liquid composition containing 500 ppm by weight of compound.
Experimental: (§4) The activities of individual compounds of formula (I) were determined using a variety of pests. The pests were treated with a liquid composition containing 500 parts per million (ppm) by weight of a compound of formula (I). Each composition was made by dissolving the compound in an acetone and ethanol (50:50 by volume) mixture and diluting the solution with water containing 0.05% by volume of a wetting agent, SYNPERONIC NP8, until the liquid composition contained the required concentration of the compound.
as §2
(§5) Similar tests were conducted against, independently, two-spotted spider mites (Tetranychus urticae), fruit flies (Drosophila melanogaster), tobacco budworms (Heliothis virescens), diamond back moth (Plutella xylostella) and corn root worm (Diabrotica balteata).
The subject of series [4] is Venturia inaequalis (VENTIN). Kind of series: foliar fungicide test on apples (Example 18). As to conditions: 100 ppm foliar spray on apples; inoculated one day after chemical application (Prot). The class given is in vivo.
Series [5] deals with Pyricularia oryzae (PYRIOR). The format is in vivo. The conditions noted are these: 100 ppm foliar spray on rice; inoculated one day after chemical application (Prot).
The subject of series [6] is Uncinula necator (UNCINE). Kind of series: foliar fungicide test on vines (Example 18). The class given is in vivo. The conditions noted are these: 100 ppm foliar spray on vines; inoculated one day before chemical application (Erad).
Series [7] has as its system Puccinia recondita (PUCCRT). The series can be described thus: foliar fungicide test on wheat (Example 19). The format is in vivo. The conditions noted are these: 100 ppm foliar (Prot) application on wheat; inoculated 6 hours or one day after application.
Series [8] relates to peach potato aphids (Myzus persicae). As to conditions: 500 ppm by weight; infested Chinese cabbage leaves sprayed; mortality assessed after three days.
Experimental: as §1, §2, §3
Series [9] deals with Plasmopara viticola (PLASVI). Kind of series: foliar fungicide test on vines (Example 19). As to conditions: 100 ppm foliar (Prot) application on vines; inoculated 6 hours or one day after application. The format is in vivo.
Series [10] relates to Blumeria graminis f.sp. tritici (ERYSGT). Kind of series: foliar fungicide test on wheat (Example 19). The class given is in vivo. The conditions noted are these: 100 ppm foliar (Prot) application on wheat; inoculated 6 hours or one day after application.
Series [11] concerns Phytophthora infestans lycopersici (PHYTIN). The format is in vivo. The conditions noted are these: 100 ppm foliar spray on tomatoes; inoculated one day after chemical application (Prot).
The test system is the same in series [12]. The format is in vivo. The conditions noted are these: 100 ppm foliar (Prot) application on tomatoes; inoculated 6 hours or one day after application.
Series [13] concerns fruit flies (Drosophila melanogaster). Kind of series: pesticidal test against fruit flies. As to conditions: liquid composition containing 500 ppm by weight of compound.
Experimental: as §4, §2, §5
In series [14] the test system is diamond back moth (Plutella xylostella). Kind of series: pesticidal test against diamond back moth. As to conditions: liquid composition containing 500 ppm by weight of compound.
Experimental: as §4, §2, §5
Series [15] relates to corn root worm (Diabrotica balteata). The series can be described thus: pesticidal test against corn root worm. As to conditions: liquid composition containing 500 ppm by weight of compound.
Experimental: as §4, §2, §5
For series [16], the system named is tobacco budworms (Heliothis virescens). The series can be described thus: pesticidal test against tobacco budworms. As to conditions: liquid composition containing 500 ppm by weight of compound.
Experimental: as §4, §2, §5

Molecules are shown by their SMILES. Like-named read-outs stand apart in the source and are kept apart here.

As a reminder, the mortality is the share of the test organisms that died. Take `CCNC=C(C(=O)Nc1snc(C)c1Cl)c1ccc2oc(CC(C)(C)C)nc2c1` [Table 15 Compound 7, N-(4-chloro-3-methylisothiazol-5-yl)-α-[(ethylamino)methylene]-[2-(2,2-dimeth-ylpropyl)benzoxazol-5-yl]acetamide]: the “PUCCRT Prot, PRCO (Percentage Reduction from Control)” value in series [1] was 100. Moreover, the mortality at 500 ppm in series [2] was 80 to 100%. Further, the “mortality (score) Tu” value in series [3] was 9 (9 indicates 80-100% mortality). The “VENTIN Prot, PRCO (Percentage Reduction from Control)” value in [4] came to 53. In addition, in series [5], the “PYRIOR Prot, PRCO (Percentage Reduction from Control)” value stood at 57. In [6], the “UNCINE Erad, PRCO (Percentage Reduction from Control)” value is given as 100.
Broadly, the melting point is the temperature of the solid-liquid transition. On to `Cc1nsc(NC(=O)Cc2ccc3oc(CC(C)(C)C)nc3c2)c1Cl`, for which the melting point was 144 to 145 °C.
On to `Cc1nsc(NC(=O)C(F)c2ccc3oc(CC(C)(C)C)nc3c2)c1Cl` (centres unmarked) [Table 5 Compound 7], for which the “PUCCRT Prot, PRCO (Percentage Reduction from Control)” value in [7] stood at 96. Further, the “mortality (score) Mp” value in series [8] is given as 9 (9 indicates 80-100% mortality). For the same compound, the “mortality (score) Tu” value in [3] is recorded as 9 (9 indicates 80-100% mortality). Moreover, the “PLASVI Prot, PRCO (Percentage Reduction from Control)” value in series [9] worked out at 98. In series [10], the “ERYSGT Prot, PRCO (Percentage Reduction from Control)” value is recorded as 100.
For `Cc1nsc(NC(=O)C(=CN(C)C)c2ccc3oc(CC(C)(C)C)nc3c2)c1Cl` [Table 14 Compound 7, N-(4-chloro-3-methylisothiazol-5-yl)-α-[(dimethylamino)methylene]-[2-(2,2-dimethylpropyl)benzoxazol-5-yl]acetamide], the “PUCCRT Prot, PRCO (Percentage Reduction from Control)” value in series [1] is 98. For the same compound, in [2], the mortality at 500 ppm was in the range of 80 to 100%. For the same compound, the “PHYTIN Prot, PRCO (Percentage Reduction from Control)” value in [11] is 0. Further, the “mortality (score) Tu” value in series [3] was 9 (9 indicates 80-100% mortality). Besides, the “VENTIN Prot, PRCO (Percentage Reduction from Control)” value in series [4] was determined as 85. Moreover, in series [5], the “PYRIOR Prot, PRCO (Percentage Reduction from Control)” value came out at 92. The “ERYSGT Prot, PRCO (Percentage Reduction from Control)” value in [10] turned out to be 83. Further, in series [6], the “UNCINE Erad, PRCO (Percentage Reduction from Control)” value worked out at 100.
As to `COC=C(C(=O)Nc1snc(C)c1Cl)c1ccc2oc(CC(C)(C)C)nc2c1` [Table 13 Compound 7], the “PHYTIN Prot, PRCO (Percentage Reduction from Control)” value in [12] worked out at 100. In addition, in series [13], the “mortality (score) Dm” value was 0 (represents less than 40% mortality). Further, the “mortality (score) Mp” value in series [8] is 9 (9 indicates 80-100% mortality). In addition, in series [9], the “PLASVI Prot, PRCO (Percentage Reduction from Control)” value worked out at 100. The “mortality (score) Px” value in series [14] is listed as 0 (represents less than 40% mortality).
For the compound `Cc1nsc(NC(=O)C(=CO)c2ccc3oc(CC(C)(C)C)nc3c2)c1Cl` [Table 12 Compound 7], the “mortality (score) Dm” value in series [13] is on record as 0 (represents less than 40% mortality). In addition, the “mortality (score) Db” value in [15] is on record as 9 (9 indicates 80-100% mortality). The “PUCCRT Prot, PRCO (Percentage Reduction from Control)” value in series [7] came out at 97. Moreover, the “mortality (score) Mp” value in series [8] is 0 (represents less than 40% mortality). Moreover, the “mortality (score) Tu” value in series [3] was 9 (9 indicates 80-100% mortality). Further, the “PLASVI Prot, PRCO (Percentage Reduction from Control)” value in series [9] amounted to 100. Moreover, the “ERYSGT Prot, PRCO (Percentage Reduction from Control)” value in series [10] was determined as 78. Further, the “mortality (score) Px” value in [14] was 9 (9 indicates 80-100% mortality).
Consider `Cc1nsc(NC(=O)C(CC#N)c2ccc3oc(CC(C)(C)C)nc3c2)c1Cl` (centres unmarked) [Table 20 Compound 7], for which, in series [16], the “mortality (score) Hv” value is reported as 0 (represents less than 40% mortality). Also, the “PHYTIN Prot, PRCO (Percentage Reduction from Control)” value in series [12] is 72. In addition, the “mortality (score) Dm” value in series [13] is on record as 0 (represents less than 40% mortality). In series [15], the “mortality (score) Db” value was 0 (represents less than 40% mortality). The “mortality (score) Mp” value in series [8] is recorded as 5 (5 indicates 40-79% mortality). Further, in series [3], the “mortality (score) Tu” value is on record as 9 (9 indicates 80-100% mortality). Also, the “PLASVI Prot, PRCO (Percentage Reduction from Control)” value in series [9] was 100. Further, the “mortality (score) Px” value in series [14] is 9 (9 indicates 80-100% mortality).

The record behind these values is patent publication US6703347B2, “Isothiazole derivatives and their use as pesticides” (Syngenta Limited, priority 2000, dated 2004).
